Measurements: patent publication US5061794A, “Cephalosporin derivatives, and antibacterial agents” (priority 1986, dated 1991)
In brackets after ≈: the same amount, converted by molar mass. Where two headings read alike, the source gives them in different places.

Legend:
[1] = system: E. coli CSH2 (RK1); assay: microbe, parasite or virus in culture; format: cell-based; conditions: Escherichia coli, 16 h, read-out: Minimum Inhibitory Concentration (MIC), *E. coli CSH2 (RK1), lactamase-producing strain; 10^6 CFU/ml
Experimental: (§1) The in vitro antibacterial activities of the compounds of the present invention against various microorganisms, were measured by the following agar plate dilution method. One platinum loopfull of each test microorganism incubated overnight in Mueller Hinton broth, was inoculated to Mueller Hinton agar (inoculum size: 10^6 CFU/ml). Such culture media containing various antibiotics in various concentrations were prepared. After incubation at 37° C. for 16 hours, the minimum inhibitory concentrations (MIC: μg/ml) were measured.

[2] = system: E. coli CSH(RE45); assay: microbe, parasite or virus in culture; format: cell-based; conditions: Escherichia coli, 16 h, read-out: Minimum Inhibitory Concentration (MIC), *E. coli CSH(RE45), lactamase-producing strain; 10^6 CFU/ml
Experimental: as §1

[3] = system: E. cloacae 963; assay: in vitro antibacterial activity, agar plate dilution method (MIC); format: cell-based; conditions: 10^6 CFU/ml
Experimental: as §1

[4] = system: S. aureus 209P NIHJ-JC1; assay: as above; format: cell-based; conditions: Staphylococcus aureus, 16 h
Experimental: as §1

[5] = system: K. oxytoca GN10650; assay: as above; format: cell-based; conditions: Klebsiella oxytoca, 10^6 CFU/ml
Experimental: as §1

[6] = system: S. marcescens IAM 1184; assay: as above; format: cell-based; conditions: Serratia marcescens, IAM1184, 16 h, read-out: Minimum Inhibitory Concentration (MIC)
Experimental: as §1

[7] = system: S. marcescens No. 16-2; assay: as above; format: cell-based; conditions: Serratia marcescens, NO.162, 16 h
Experimental: as §1

[8] = system: E. coli GN5482; assay: as above; format: cell-based; conditions: Escherichia coli
Experimental: as §1

[9] = system: M. morganii GN5407; assay: as above; format: cell-based; conditions: Morganella morganii, 10^6 CFU/ml
Experimental: as §1

[10] = system: K. pneumoniae No. 42; assay: as above; format: cell-based; conditions: Klebsiella pneumoniae, 10^6 CFU/ml
Experimental: as §1

[11] = system: K. pneumoniae PCI-602; assay: as above; format: cell-based; conditions: Klebsiella pneumoniae, PCI602, 16 h, 10^6 CFU/ml
Experimental: as §1

[12] = system: E. coli NIHJ JC2; assay: as above; format: cell-based; conditions: Escherichia coli
Experimental: as §1

[13] = system: P. vulgaris HX-19; assay: as above; format: cell-based; conditions: Proteus vulgaris, HX19, 16 h, P. vulgaris HX-19; 10^6 CFU/ml; read-out: Minimum Inhibitory Concentration (MIC)
Experimental: as §1

[14] = system: P. vulgaris No. 33; assay: as above; format: cell-based; conditions: Proteus vulgaris, NO.33, 16 h, read-out: Minimum Inhibitory Concentration (MIC), *P. vulgaris No. 33, lactamase-producing strain; 10^6 CFU/ml
Experimental: as §1

[15] = system: E. cloacae Nek 39; assay: as above; format: cell-based; conditions: Enterobacter cloacae, NEK39, 16 h, 10^6 CFU/ml
Experimental: as §1

[16] = system: Ps. aeruginosa IF03445; assay: as above; format: cell-based, Pseudomonas aeruginosa; conditions: Pseudomonas aeruginosa, 10^6 CFU/ml
Experimental: as §1

[17] = system: Ps. aeruginosa AK 109; assay: as above; format: cell-based, Pseudomonas aeruginosa; conditions: Pseudomonas aeruginosa, AK109, 16 h
Experimental: as §1

[18] = system: Ps. aeruginosa AKR17; assay: as above; format: cell-based, Pseudomonas aeruginosa; conditions: Pseudomonas aeruginosa, read-out: Minimum Inhibitory Concentration (MIC)
Experimental: as §1

[19] = system: Ps. cepacia 23; assay: as above; format: cell-based, Pseudomonas cepacia; conditions: Burkholderia cepacia, 16 h; Ps. cepacia 23; 10^6 CFU/ml; read-out: Minimum Inhibitory Concentration (MIC)
Experimental: as §1

[20] = system: A. calcoaceticus No. 4; assay: as above; format: cell-based, Acinetobacter calcoaceticus; conditions: Acinetobacter calcoaceticus, NO.4, 16 h, 10^6 CFU/ml
Experimental: as §1

[21] = Enterobacter cloacae, 963, 16 h, read-out: Minimum Inhibitory Concentration (MIC), E. cloacae 963
[22] = GN10650, 16 h, read-out: Minimum Inhibitory Concentration (MIC), *K. oxytoca GN10650, lactamase-producing strain
[23] = read-out: Minimum Inhibitory Concentration (MIC), *S. marcescens No. 16-2, lactamase-producing strain, 10^6 CFU/ml
[24] = GN5482, 16 h, read-out: Minimum Inhibitory Concentration (MIC)
[25] = GN5407, 16 h, read-out: Minimum Inhibitory Concentration (MIC), *M. morganii GN5407, lactamase-producing strain
[26] = NO.42, 16 h, read-out: Minimum Inhibitory Concentration (MIC), *K. pneumoniae No. 42, lactamase-producing strain
[27] = read-out: Minimum Inhibitory Concentration (MIC), K. pneumoniae PCI-602
[28] = NIHJJC2, 16 h, read-out: Minimum Inhibitory Concentration (MIC), E. coli NIHJ JC2, 10^6 CFU/ml, 37° C.
[29] = read-out: Minimum Inhibitory Concentration (MIC), *E. cloacae Nek 39, lactamase-producing strain
[30] = IF03445, 16 h, read-out: Minimum Inhibitory Concentration (MIC), Ps. aeruginosa IF03445
[31] = read-out: Minimum Inhibitory Concentration (MIC)
[32] = 16 h, Ps. aeruginosa AKR17, 10^6 CFU/ml
[33] = read-out: Minimum Inhibitory Concentration (MIC), A. calcoaceticus No. 4
[34] = Enterobacter cloacae, 16 h, E. cloacae 963, read-out: Minimum Inhibitory Concentration (MIC)
[35] = S. marcescens IAM 1184, 10^6 CFU/ml
[36] = A. calcoaceticus No. 4, read-out: Minimum Inhibitory Concentration (MIC)
[37] = S. aureus 209P NIHJ-JC1, 10^6 CFU/ml, 37° C., 16 hours, read-out: Minimum Inhibitory Concentration (MIC)
[38] = 16 h, *K. oxytoca GN10650, lactamase-producing strain, read-out: Minimum Inhibitory Concentration (MIC)
[39] = 16 h, Ps. aeruginosa IF03445, read-out: Minimum Inhibitory Concentration (MIC)

Row | Structure (SMILES) | MIC [1] | MIC [2] | MIC [3, 21] | MIC [5, 22] | MIC [6] | MIC [7, 23] | MIC [8, 24] | MIC [9, 25] | MIC [10, 26] | MIC [11, 27] | MIC [12, 28] | MIC [13] | MIC [14] | MIC [15, 29] | MIC [17, 31] | MIC [18, 32] | MIC [19] | MIC [3, 34] | MIC [4, 37] | MIC [16, 39] | further results
1 | CCO/N=C(\C(=O)N[C@@H]1C(=O)N2C(C(=O)O)=C(CSc3nnc(-c4ccc(O)c(O)c4)o3)CS[C@H]12)c1csc(N)n1 [Ex. 5, sodium 7β-[2-(2-aminothiazol-4-yl)-2-ethoxyiminoacetamido]-3-[5-(3,4-dihydroxyphenyl)-1,3,4-oxadiazol-2-yl]thiomethyl-3-cephem-4-carboxylate] | 0.0125 µg/mL | 0.0125 µg/mL | 0.0125 µg/mL | 0.78 µg/mL | 0.0125 µg/mL | 0.78 µg/mL | 0.39 µg/mL | 0.025 µg/mL | 0.05 µg/mL | < 0.006 µg/mL | 0.05 µg/mL | < 0.006 µg/mL | 0.025 µg/mL | 0.1 µg/mL | 0.39 µg/mL | > 100 µg/mL | < 0.006 µg/mL |  |  |  | MIC ([4]; read-out: Minimum Inhibitory Concentration (MIC), S. aureus 209P NIHJ-JC1, 10^6 CFU/ml, 37° C., 16 hours): 0.78 µg/mL; MIC [16, 30]: 0.39 µg/mL; MIC [20, 33]: 0.1 µg/mL
2 | Nc1nc(C(=NOCC(=O)O)C(=O)NC2C(=O)N3C(C(=O)O)=C(CSc4nc(-c5ccc(O)c(O)c5)cs4)CSC23)cs1 (stereo not drawn) [Ex. 43, disodium 7β-[2-(2-aminothiazol-4-yl)-2-carboxylatemethoxyimincacetamido]-3-[4-(3,4-dihydroxyphenyl)thiazol-2-yl]thiomethvl-3-cephem-4-carboxylate] | 0.025 µg/mL | 0.025 µg/mL |  | 0.39 µg/mL |  | 1.56 µg/mL | 0.39 µg/mL | 0.05 µg/mL | 0.1 µg/mL | < 0.006 µg/mL | 0.2 µg/mL | < 0.006 µg/mL | 0.05 µg/mL | 0.2 µg/mL |  |  | < 0.006 µg/mL | 0.1 µg/mL |  |  | MIC [4, 31]: 12.5 µg/mL; MIC [6, 35]: 0.05 µg/mL; MIC [16, 30]: 0.78 µg/mL; MIC ([17]; read-out: Minimum Inhibitory Concentration (MIC), Ps. aeruginosa AK 109, 10^6 CFU/ml): 0.78 µg/mL; MIC ([18]; AKR17, 16 h): 12.5 µg/mL; MIC [20, 36]: 0.2 µg/mL
3 | CC(C)(O/N=C(\C(=O)N[C@@H]1C(=O)N2C(C(=O)O)=C(CSc3nnc(-c4ccc(O)cc4)o3)CS[C@H]12)c1csc(N)n1)C(=O)O [compound 4, disodium 7β-[2-(2-aminothiazol-4-yl)-2-(1-carboxylate-1-methylethoxyimino)acetamido]-3-[5-(4-hydroxyphenyl)-1,3,4-oxadiazol-2-yl]thiomethyl-3-cephem-4-carboxylate, reference compound] | 0.78 µg/mL | 0.78 µg/mL |  |  | 0.78 µg/mL |  |  | 0.78 µg/mL |  | 0.1 µg/mL |  | 0.1 µg/mL | 0.2 µg/mL | 12.5 µg/mL | 12.5 µg/mL | > 100 µg/mL |  | 3.12 µg/mL | 6.25 µg/mL | 25 µg/mL | MIC [5, 38]: 1.56 µg/mL; MIC [7, 31]: 12.5 µg/mL; MIC ([8]; 16 h, *E. coli GN5482, lactamase-producing strain, 10^6 CFU/ml, read-out: Minimum Inhibitory Concentration (MIC)): 1.56 µg/mL; MIC ([10]; 16 h, *K. pneumoniae No. 42, lactamase-producing strain, read-out: Minimum Inhibitory Concentration (MIC)): 1.56 µg/mL; MIC ([12]; NIHJJC2, E. coli NIHJ JC2, 10^6 CFU/ml, 37° C., 16 hours, read-out: Minimum Inhibitory Concentration (MIC)): 3.12 µg/mL; MIC [20, 36]: 25 µg/mL
4 | CO/N=C(\C(=O)N[C@@H]1C(=O)N2C(C(=O)O)=C(COC(C)=O)CS[C@H]12)c1csc(N)n1 [cefotaxime, reference compound] | 0.0125 µg/mL (≈ 0.0274 µM) |  |  |  | 0.0125 µg/mL (≈ 0.0274 µM) |  |  |  |  |  |  | < 0.006 µg/mL |  |  |  |  | 6.25 µg/mL (≈ 13.7 µM) | 0.05 µg/mL (≈ 0.11 µM) | 1.56 µg/mL (≈ 3.43 µM) | 2.5 µg/mL (≈ 5.49 µM) | MIC ([7]; *S. marcescens No. 16-2, lactamase-producing strain, 10^6 CFU/ml, read-out: Minimum Inhibitory Concentration (MIC)): 6.25 µg/mL (≈ 13.7 µM); MIC ([9]; 16 h, *M. morganii GN5407, lactamase-producing strain, read-out: Minimum Inhibitory Concentration (MIC)): 0.05 µg/mL (≈ 0.11 µM); MIC ([11]; K. pneumoniae PCI-602, read-out: Minimum Inhibitory Concentration (MIC)): < 0.006 µg/mL; MIC ([15]; *E. cloacae Nek 39, lactamase-producing strain, read-out: Minimum Inhibitory Concentration (MIC)): 1.56 µg/mL (≈ 3.43 µM); MIC ([17]; Ps. aeruginosa AK 109, 10^6 CFU/ml, read-out: Minimum Inhibitory Concentration (MIC)): 12.5 µg/mL (≈ 27.4 µM)
5 | CON=C(C(=O)NC1C(=O)N2C(C(=O)O)=C(CSc3nc(-c4ccc(OC(C)=O)c(OC(C)=O)c4)cs3)CSC12)c1csc(N)n1 (stereo not drawn) [compound 40, sodium 3-[4-(3,4-diacetoxyphenyl)-thiazol-2-yl]thiomethyl-7β-[2-(2-aminothiazol-4-yl)-2-methoxviminoacetamido]-3-cephem-4-carboxvlate] | 0.025 µg/mL | 0.2 µg/mL | 0.05 µg/mL |  |  | 6.25 µg/mL |  | 0.1 µg/mL | 0.2 µg/mL | < 0.006 µg/mL | 0.2 µg/mL | 0.0125 µg/mL | 0.1 µg/mL | 0.39 µg/mL | 3.12 µg/mL | < 100 µg/mL |  |  | 1.56 µg/mL | 1.56 µg/mL | MIC [5, 38]: 1.56 µg/mL; MIC [6, 35]: 0.1 µg/mL; MIC ([8]; GN5482, 16 h, read-out: Minimum Inhibitory Concentration (MIC), *E. coli GN5482, lactamase-producing strain, 10^6 CFU/ml): 0.78 µg/mL; MIC [20, 33]: 0.78 µg/mL
